# Data as given in US20040013717A1, “PEG-lipid containing formulations” (priority 2001, published 2004).
# Assay: Stability of cryodesiccated composition
# Assay type: physicochemical
# Conditions: room temperature
# Source text: Once formulated, the micelles of the invention may be freeze-dried or lyophilized for long-term storage if desired. […] If the composition is freeze-dried, it may be packed in vials for subsequent reconstitution with a suitable aqueous solution, such as sterile water or sterile water containing a saccharide and/or other suitable excipients, just prior to use. For example, reconstitution may be by simply adding water for injection just prior to administration.
substance,measurement,value
benzoporphyrin derivative monoacid ring A [verteporfin],period over which potency was maintained,at least nine months
